Reference: patent US20050171424A1, “Methods for imaging the lymphatic system using dendrimer-based contrast agents” (The Gov. of the USA as rep. by the Secretary of the Dept. …, priority 2004, published 2005)

Experiments:
[1] = system: Draining Lymph Nodes (LNs) From the Normal Breast Tissue; experiment: Dynamic micro-MR mammo-lymphangiography of lymphatic drainage from the normal mammary gland; type: in vivo, mice (Balb/c, athymic nu/nu)
Description: (§1) Mice were anesthetized with 1.15 mg sodium pentobarbital (Dainabot, Osaka, Japan), and then injected with 0.15-0.24 μmol Gd/5-8 μL of the PAMAM-G6 contrast agent into normal mammary glands or mammary tissue surrounding a tumor (peritumorally). Dynamic micro-MR images were obtained using a 1.5-Tesla superconductive magnet unit (Signa LX, General Electric Medical System, Milwaukee, Wis.) with a birdcage type coil of 3 cm diameter fixed by a custom made coil holder. [Single and double “breast coils” used for imaging breasts in humans are commercially available, for example, from GE Medical Systems (Milwaukee, Wis.) and are routinely available in outpatient MRI centers] The mice were wrapped with gauze to stabilize their body temperature and were placed at the center of the coils.
In order to evaluate the lymphatic drainage from the normal mammary gland of either Balb/c mice (n=5) or athymic nu/nu mice (n=5), 3D-fast spoiled gradient echo [3D-fastSPGR (efgre3d package; Signa Horizon, GE); repetition time/echo time 19.2/7.2 msec; inversion time 47 msec; 31.2 kHz, flip angle 30°, 4 excitations; 36 slice encoding steps; scan time 4 min 49 seconds] with chemical shift fat-suppression was used 6, 12, 18, 24, 30, 36, 42, and 48 min after injection of the contrast agent. The coronal images were reconstructed with 0.6-mm section thickness every 0.3-mm. The FOV was 8×4 cm and the size of the matrix was 512×256. The slice data were processed into 3D images using the maximum intensity projection (MIP) method with the same window and level (window 3500 and level 2100) (Advantage Windows, General Electric Medical System). After imaging, the mice were sacrificed by carbon dioxide inhalation.

[2] = system: draining lymph nodes and lymphatic vessels; experiment: 3D dynamic mammo-lymphangiograms after sequential injection of GPDM and PAMAM-G6 into the mammary gland; type: in vivo, athymic nu/nu mice; details: 0.15 μmol Gd into mammary gland; GPDM imaged at 12, 24, 36 min, then PAMAM-G6 injected 36 minutes following GPDM
Description: Mice were anesthetized with 1.15 mg sodium pentobarbital (Dainabot, Osaka, Japan), and then injected with 0.15-0.24 μmol Gd/5-8 μL of the PAMAM-G6 contrast agent into normal mammary glands or mammary tissue surrounding a tumor (peritumorally). Dynamic micro-MR images were obtained using a 1.5-Tesla superconductive magnet unit (Signa LX, General Electric Medical System, Milwaukee, Wis.) with a birdcage type coil of 3 cm diameter fixed by a custom made coil holder. [Single and double “breast coils” used for imaging breasts in humans are commercially available, for example, from GE Medical Systems (Milwaukee, Wis.) and are routinely available in outpatient MRI centers] The mice were wrapped with gauze to stabilize their body temperature and were placed at the center of the coils. Athymic nu/nu mice (n=4) were anesthetized and injected with 0.15 μmol Gd of GPDM into the mammary gland, and images were taken 12, 24, and 36 min after injection. Following these three images, these mice were subsequently injected with 0.15 μmol Gd of PAMAM-G6 contrast agent in the mammary gland, and images were taken at 12 and 24 min post-injection of the PAMAM-G6 contrast agent (at 48 and 60 min post-injection of GPDM).

[3] = system: lymphatic drainage from tumor-bearing mammary glands; experiment: Mammo-MR-lymphangiography of tumor-bearing mammary glands, BALB-neuT transgenic breast cancer model; type: in vivo, BALB-neuT transgenic mice; details: FIG. 4
Description: The breast-tumor bearing mice were thirty one week-old BALB-neuT mice (n=3) transgenic for the rat HER-2/neu (Erb B2) oncogene under the control of the mouse mammary tumor virus promotor (MMTV). […] BALB-neuT mice were used because of their spontaneous development of bilateral breast cancers and lymph node metastases. […] Most metastatic lymph nodes from the mouse mammary pad localize in the neck, lateral thoracic, or axillary region.
Mice were anesthetized with 1.15 mg sodium pentobarbital (Dainabot, Osaka, Japan), and then injected with 0.15-0.24 μmol Gd/5-8 μL of the PAMAM-G6 contrast agent into normal mammary glands or mammary tissue surrounding a tumor (peritumorally). Dynamic micro-MR images were obtained using a 1.5-Tesla superconductive magnet unit (Signa LX, General Electric Medical System, Milwaukee, Wis.) with a birdcage type coil of 3 cm diameter fixed by a custom made coil holder. [Single and double “breast coils” used for imaging breasts in humans are commercially available, for example, from GE Medical Systems (Milwaukee, Wis.) and are routinely available in outpatient MRI centers] The mice were wrapped with gauze to stabilize their body temperature and were placed at the center of the coils. […]

[4] = system: lymphatic drainage from PT-18 tumor-bearing mammary gland; experiment: Mammo-MR-lymphangiography of PT-18 tumor xenograft-bearing mammary gland; type: in vivo, athymic nu/nu mice; details: FIG. 5
Description: Tumor xenografts of PT-18, a murine mast cell line, were introduced into the left mammary pad in athymic nu/nu mice. When 10^7 PT-18 cells were injected in the left mammary pad of 10 athymic nu/nu mice, six mice developed tumor masses in the left axillary lymph nodes within three weeks.
as §1
In order to evaluate lymphatic drainage from six tumor-bearing mammary glands of three BALB-neuT transgenic mice or the PT-18 tumor-bearing mammary gland of athymic nu/nu mice (n=6), 2D fast-inversion recovery [2D-fastIR; repetition time/echo time 8000/96 msec; inversion time 150 msec; 31.2 kHz, 2 excitations; 16 slices; scan time 2 min 16 seconds] was employed to evaluate the tumor localization before injection of PAMAM-G6 contrast agent. The coronal images were reconstructed with 1.5 mm section thickness without a gap. The FOV was 8×4 cm and the size of matrix was 512×256. The slice data were processed into 3D images using the MIP method with the same window and level (window 3500 and level 2100) (Advantage Windows, GE). Then images were obtained with the 3D-fastSPGR sequence as described above.

[5] = Distribution and survival properties of the dendrimer conjugates; details: in vivo
[6] = 6 min after injection into normal mammary gland
[7] = 12 min after injection into normal mammary gland
[8] = 18 min after injection into normal mammary gland
[9] = 24 min after injection into normal mammary gland
[10] = 30 min after injection into normal mammary gland
[11] = 36 min after injection into normal mammary gland
[12] = 42 min after injection into normal mammary gland
[13] = 48 min after injection into normal mammary gland

Which “Visualized LNs/Total Examined LNs, Axillary LN” value [1, 6] does the source give for “PAMAM-G6D-(Gd-1B4M)256 dendrimer conjugate” here?
The value was 10/10.

And the “Visualized LNs/Total Examined LNs, Lateral thoracic LN” value [1, 6]?
The value was 0/10.

What about the “Visualized LNs/Total Examined LNs, Superficial cervical LN” value [1, 6] of the same substance?
The value was 1/10.

And the “Visualized LNs/Total Examined LNs, Axillary LN” value [1, 7]?
Its value is 10/10.

What about the “Visualized LNs/Total Examined LNs, Lateral thoracic LN” value [1, 7] of the same substance?
Its value is 1/10.

And the “Visualized LNs/Total Examined LNs, Superficial cervical LN” value [1, 7]?
Its value is 1/10.

What about the “Visualized LNs/Total Examined LNs, Axillary LN” value [1, 8] of the same substance?
The value was 10/10.

And the “Visualized LNs/Total Examined LNs, Lateral thoracic LN” value [1, 8]?
The value was 2/10.

And the “Visualized LNs/Total Examined LNs, Superficial cervical LN” value [1, 8]?
Its value is 1/10.

What about the “Visualized LNs/Total Examined LNs, Axillary LN” value [1, 9] of the same substance?
Its value is 10/10.

What about the “Visualized LNs/Total Examined LNs, Lateral thoracic LN” value [1, 9] of the same substance?
Its value is 4/10.

What about the “Visualized LNs/Total Examined LNs, Superficial cervical LN” value [1, 9] of the same substance?
The value was 2/10.

What about the “Visualized LNs/Total Examined LNs, Axillary LN” value [1, 10] of the same substance?
Its value is 10/10.

What about the “Visualized LNs/Total Examined LNs, Lateral thoracic LN” value [1, 10] of the same substance?
Its value is 4/10.

And the “Visualized LNs/Total Examined LNs, Superficial cervical LN” value [1, 10]?
The value was 2/10.

And the “Visualized LNs/Total Examined LNs, Axillary LN” value [1, 11]?
The value was 10/10.

What about the “Visualized LNs/Total Examined LNs, Lateral thoracic LN” value [1, 11] of the same substance?
Its value is 5/10.

What about the “Visualized LNs/Total Examined LNs, Superficial cervical LN” value [1, 11] of the same substance?
The value was 3/10.

What about the “Visualized LNs/Total Examined LNs, Axillary LN” value [1, 12] of the same substance?
The value was 10/10.

And the “Visualized LNs/Total Examined LNs, Lateral thoracic LN” value [1, 12]?
The value was 6/10.

And the “Visualized LNs/Total Examined LNs, Superficial cervical LN” value [1, 12]?
Its value is 3/10.

What about the “Visualized LNs/Total Examined LNs, Axillary LN” value [1, 13] of the same substance?
Its value is 10/10.

What about the “Visualized LNs/Total Examined LNs, Lateral thoracic LN” value [1, 13] of the same substance?
Its value is 6/10.

What about the “Visualized LNs/Total Examined LNs, Superficial cervical LN” value [1, 13] of the same substance?
Its value is 3/10.

And the “Mice in which the axillary lymph node and its afferent lymphatic vessels were visualized” value ([1]; initial (6 min) time point)?
Its value is “all 10 mice”.

What about the “Visualization of draining lymph nodes and lymphatic vessels (FIG. 3)” value [2] of the same substance?
The value was “clearly visualized”.

And the “Imaging of enlarged lymph nodes containing tumor metastases and dilated lymphatic vessels” value [3]?
Its value is “clearly imaged”.

What about the “Visualization of flow within the draining lymphatic vessels” value ([3]; peritumoral injection) of the same substance?
Its value is “readily visualized”.

And the “Enhancement of axillary lymph node tissue with metastatic tumor cells” value [4]?
Its value is “did not shown enhancement”.

What about the “Enhancement of the lymphatic vessel flowing into the lymph node with a metastatic tumor” value [4] of the same substance?
Its value is “dilated and showed enhancement”.

And the “Visualization of flow within the draining lymphatic vessels” value ([4]; peritumoral injection)?
Its value is “readily visualized”.

And the “Survival period in the lymph system” value [5]?
Its value is “intermediate survival period in the lymph system”.
